We go through one compound from patent publication US20120195986A1, “PREVENTING OR TREATING PERIODONTAL DISEASES BY HERBAL EXTRACT” (priority 2009, published 2012).

The test has as its system male ICR mice. The test is described as follows: In vivo anti-inflammatory activity (croton oil-induced ear inflammation, ear thickness). As to conditions: 20 mg/kg orally (positive control). Also noted: species or system mouse. The procedure: In order to evaluate in vivo anti-inflammatory activity of the combined extract prepared in Preparation Examples 4 to 7 showing improved osteoblast proliferation and anti-inflammatory activity in the above Experimental Examples 1 and 2 and single extract in Examples 1.1 and 1.2, Hee et. al.'s method was used for the evaluation (Kor J. Pharmacogn. 25(4), 363˜367, 1994, Arch. Pharm. Res. 16(1), 18˜24, 1993.), and the result is shown in Table 2. In Table 2, 20 mg/kg was administered for positive control (Indomethacin, Sigma) and 200 mg/kg was administered for the test groups orally. Dose dependent anti-inflammatory activity was evaluated for the Example 5 with the highest activity, and the result is shown in Table 3. The thickness of ear was measured by using a thickness gauge (model H, Peacock, Japan) for male ICR mice (6 weeks, Samtaco Biokorea) before treating with the formulation. The control and test drug was administered orally, and the inflammation was induced 1 hour after the administration by smearing 10 uL of inflammation inducing material (2.5% croton oil, sigma) dissolved in acetone on the inner and outer ear after immobilizing the mice. In 5 hours, the mice were sacrificed by cervical dislocation and the thickness of the right ear was measured.

The structures appear in SMILES notation.

As for `COc1ccc2c(c1)c(CC(=O)O)c(C)n2C(=O)c1ccc(Cl)cc1` [Indomethacin], the “Anti-inflammatory activity (%)” value is listed as 50%.
